Assay results published in article PMC7515950, “Physiologically based pharmacokinetic modeling to assess metabolic drug–drug interaction risks and inform the drug label for fedratinib” (Cancer Chemotherapy and Pharmacology, 2020).
Like-named read-outs stand apart in the source and are kept apart here.

Tests used:
[1] = Human 14C mass balance and metabolic profiling (BEX12257, MEH0082); type: in vivo; conditions: for fa (fraction of absorbed dose): estimated from mass balance and metabolic profiling, BEX12257 and MEH0082; for CL renal: estimated from BEX12257, MEH0082 with CL/F of 33.3 L/h, read-out: CLR (renal clearance) (converted)
Protocol: The first-order absorption ka value was estimated to be ~0.22 h^-1 based on compartmental modeling of mean PK data obtained from healthy subjects given single doses of 500 mg fedratinib (see Table 1 in Supplemental Material SM 2). The fa value was estimated based on data obtained from the mass balance and metabolic profiling studies conducted in healthy subjects. By combining the estimated excretion percentages of the parent compound in urine, feces, and bile, the unabsorbed dose was estimated to be ~35% and thus fraction of absorption (fa) was estimated to be ~0.65 (see Figure 2 and “Excretion Parameters” subsection).
Following the normalization, excretion percentages of fedratinib were estimated to be ~5% and ~37% of the administered dose in urine and feces, respectively.

CYP2C9 = biological target: T1, CYP2C9 (Homo sapiens, UniProt P11712); test: CYP inhibition in human liver microsomes (MIH0887), CYP2C9; type: in vitro ADME; conditions: HLM, apparent Ki, reversible inhibition
T1 construct: from tissue; host or cells: human liver microsomes
T1 sequence (P11712 whole entry): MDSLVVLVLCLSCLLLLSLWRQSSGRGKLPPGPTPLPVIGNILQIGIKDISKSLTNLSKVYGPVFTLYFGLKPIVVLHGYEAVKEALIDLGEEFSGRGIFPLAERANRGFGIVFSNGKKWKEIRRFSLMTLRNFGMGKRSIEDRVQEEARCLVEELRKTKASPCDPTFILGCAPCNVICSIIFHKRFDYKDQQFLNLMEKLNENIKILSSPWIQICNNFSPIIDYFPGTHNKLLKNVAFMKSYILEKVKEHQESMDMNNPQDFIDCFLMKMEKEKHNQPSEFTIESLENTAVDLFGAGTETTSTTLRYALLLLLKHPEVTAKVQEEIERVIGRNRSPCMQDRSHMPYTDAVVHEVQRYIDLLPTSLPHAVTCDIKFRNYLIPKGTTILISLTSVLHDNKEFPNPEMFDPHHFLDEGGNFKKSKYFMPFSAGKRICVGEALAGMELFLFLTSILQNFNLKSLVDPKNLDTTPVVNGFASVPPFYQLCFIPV
Protocol: (§1) The CYP enzyme reverse inhibition and mechanism-based inhibition (MBI) parameters were estimated in the human liver microsome (HLM) incubation in vitro studies. The reported reversible inhibition parameter (i.e., apparent Ki) values for CYP2C8, CYP2C9, and CYP2D6, along with the MBI parameters (i.e., KI or Kapp and kinact) for CYP2C19 and CYP3A4, were supplied to the PBPK DDI model (see Table 2).

CYP2C19 = biological target: T2, CYP2C19 (Homo sapiens, UniProt P33261); test: CYP mechanism-based inhibition in human liver microsomes (MIH0887), CYP2C19; type: in vitro ADME; conditions: HLM
T2 construct: from tissue; host or cells: human liver microsomes
T2 sequence (P33261 whole entry): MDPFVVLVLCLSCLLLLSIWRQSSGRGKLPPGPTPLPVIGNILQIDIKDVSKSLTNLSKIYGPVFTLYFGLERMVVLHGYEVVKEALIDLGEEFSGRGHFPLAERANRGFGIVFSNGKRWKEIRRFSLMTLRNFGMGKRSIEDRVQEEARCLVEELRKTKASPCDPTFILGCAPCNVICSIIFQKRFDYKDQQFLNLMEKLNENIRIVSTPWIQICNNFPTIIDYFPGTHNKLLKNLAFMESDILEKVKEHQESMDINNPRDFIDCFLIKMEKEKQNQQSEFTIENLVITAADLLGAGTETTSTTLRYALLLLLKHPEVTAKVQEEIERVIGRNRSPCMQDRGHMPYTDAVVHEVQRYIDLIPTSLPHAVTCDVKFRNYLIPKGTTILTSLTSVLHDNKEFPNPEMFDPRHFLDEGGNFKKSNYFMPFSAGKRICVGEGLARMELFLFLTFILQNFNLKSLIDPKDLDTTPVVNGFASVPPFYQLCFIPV
Protocol: as §1

CYP3A4 = test: CYP3A induction in primary human hepatocytes (IHH0014); type: in vitro ADME
From the text: The induction effect of fedratinib on CYP3A gene expression was identified using human hepatocytes in primary culture. The reported kinetic data, i.e., concentration-dependent fold induction of CYP3A mRNA levels, were fitted to estimate the Indmax and IndC50 values for fedratinib with calibration against the induction effect observed for the positive control compound rifampin [9].

[2] = Clinical single-dose PK of fedratinib in healthy subjects; type: in vivo, human; conditions: corresponding to dose-normalized AUC of 30 ng·h/(mL·mg)
Protocol: First, the developed PBPK model was verified against clinical observations in healthy subjects administered single doses of 300 mg fedratinib alone without further modifications. Second, the developed PBPK model was verified against clinical data under repeated dosing scenarios. As no repeated-dosing studies have been conducted in healthy volunteers, the model verification was conducted using the clinical PK profiles from myelofibrosis (MF) patients administered repeated doses of 300, 400, or 500 mg fedratinib once a day (QD). Third, the PBPK model of fedratinib was verified against the clinical data observed in healthy volunteers co-dosed with fedratinib (300 mg, single dose) and ketoconazole (200 mg BID).
AUC refers to AUCinf for the single dose scenarios and AUCτ for the repeated QD dose scenarios. The number of subjects (n) = 6 in TDU12620, n = 17 in INT12894, n = 10-11 in ARD11936, and n = 100 in virtual trial simulations, respectively. All model simulations listed in the table were simulated using the default “Healthy Volunteers” and “Cancer” population files provided in Simcyp® (V17R1). The prediction error is calculated using PE = (GMprediction – GMobservation)/GMobservation ×100%, where GM refers to geometric mean. SD refers to standard deviation.

OCT2 = biological target: T3, OCT2 (Homo sapiens, UniProt O15244); test: OCT2 inhibition, CHO-hOCT2 cells (TRI0013); type: in vitro ADME; set-up: expressed in transfected cells; host or cells: CHO^Fi-hOCT2
T3 sequence (O15244 1-555): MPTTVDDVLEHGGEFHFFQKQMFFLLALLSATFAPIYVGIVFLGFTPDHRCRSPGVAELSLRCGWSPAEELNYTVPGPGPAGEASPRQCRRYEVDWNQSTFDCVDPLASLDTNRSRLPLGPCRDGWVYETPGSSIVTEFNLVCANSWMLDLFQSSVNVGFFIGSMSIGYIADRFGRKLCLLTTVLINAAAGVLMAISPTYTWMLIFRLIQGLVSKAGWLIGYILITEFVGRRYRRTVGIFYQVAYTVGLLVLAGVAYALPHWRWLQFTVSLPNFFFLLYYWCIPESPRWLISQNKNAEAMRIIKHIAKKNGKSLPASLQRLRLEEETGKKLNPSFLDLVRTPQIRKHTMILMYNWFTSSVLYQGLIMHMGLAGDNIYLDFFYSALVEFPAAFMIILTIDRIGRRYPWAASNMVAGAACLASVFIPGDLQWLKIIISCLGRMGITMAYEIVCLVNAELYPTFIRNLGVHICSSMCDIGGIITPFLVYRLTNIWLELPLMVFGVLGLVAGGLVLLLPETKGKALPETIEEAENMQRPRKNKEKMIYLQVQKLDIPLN
From the text: The reported IC50 values were converted to Ki values using the Cheng-Prusoff equation [10]:
The transporter inhibition parameters (Ki) for fedratinib were derived from the experimentally determined IC50 values using the Cheng-Prusoff equation, i.e., Ki = IC50/(1+[S]/Km) with the substrate concentrations ([S]) reported in the experimental studies and the substrate Km values collected from literature, as summarized in Table 13.

[3] = human 14C-mass balance, over 0-192/240h
[4] = normalized by total recovered radioactivity

Cc1cnc(Nc2ccc(OCCN3CCCC3)cc2)nc1Nc1cccc(S(=O)(=O)NC(C)(C)C)c1 [Fedratinib]
unabsorbed dose ([1]; estimated from excretion of parent in urine, feces and bile): ~ 35%
fa (fraction of absorbed dose) [1]: 0.65
fa (fraction of absorbed dose) ([1]; listed as fedratinib): 0.650
parent compound in feces, percent of administered dose [1, 3]: 23.3%
parent compound in urine, percent of administered dose [1, 3]: 2.9%
blood plasma ratio ([1]; human, blood and plasma, oral, Study BEX12257, read-out: B/P (blood/plasma concentration ratio)): 0.7
CL renal ([1]; human, in vivo, oral): ~27.8 mL/min
CL renal ([1]; human, urine, oral): 27.8 mL/min
excretion percentage of fedratinib in feces, normalized [1, 4]: ~ 37%
excretion percentage of fedratinib in urine, normalized [1, 4]: ~ 5%
total percent activity of administered dose ([1]; over 0-192/240h): 62.7%
Ki (CYP2C9): 26.1 µM
CYP2C19 KI or Kapp (CYP2C19): 112 µM
CYP2C19 KI or Kapp (CYP2C19; listed as fedratinib): 112.000 µM
kinact (CYP2C19; human, human liver microsomes): 0.000558 s⁻¹
CYP3A4 Ind max (CYP3A4; Simcyp input): 78.000
EC50 (CYP3A4; human, human hepatocytes in primary culture, CYP3A mRNA, fitted, calibrated against rifampin, read-out: CYP3A4 IndC50): 5.3 µM
CYP3A Indmax (CYP3A4; maximal fold induction over vehicle, CYP3A mRNA, calibrated against rifampin): 78.0
CL/F [2]: 33.3 L/h
Ki (OCT2; from IC50 by Cheng-Prusoff, probe metformin): 0.71 µM
IC50 (OCT2; probe metformin 25 μM): 0.78 µM
